Active and inactive are the calls of the source. How the calls were made is not given here.
System: CCRIS mutagenicity, Ames/micronucleus/aberration tests
Test: CCRIS mutagenicity studies
[1] = Test System: AMES SALMONELLA TYPHIMURIUM, Strain/Indicator: TA98, Metabolic Activation: NONE, Method: STANDARD PLATE

Measured: mutagenic call

O=C(O)c1ccccc1-c1c2ccc(=O)cc-2oc2cc(O)ccc12
inactive: End Point: IN VITRO CHROMOSOMAL ABERRATIONS, Test System: CHO-LB CELLS, Metabolic Activation: NONE inactive; negative | End Point: IN VITRO CHROMOSOMAL ABERRATIONS, Test System: CHO-LB CELLS, Metabolic Activation: RAT, LIVER, S-9, AROCLOR 1254 inactive; negative | Test System: AMES SALMONELLA TYPHIMURIUM, Strain/Indicator: TA98, Metabolic Activation: HAMSTER, LIVER, S-9, AROCLOR 1254 (10%), Method: PREINCUBATION inactive; negative | Test System: AMES SALMONELLA TYPHIMURIUM, Strain/Indicator: TA98, Metabolic Activation: NONE, Method: PREINCUBATION inactive; negative | Test System: AMES SALMONELLA TYPHIMURIUM, Strain/Indicator: TA98, Metabolic Activation: RAT, LIVER, S-9, AROCLOR 1254 (10%), Method: PREINCUBATION inactive; negative | Test System: AMES SALMONELLA TYPHIMURIUM, Strain/Indicator: TA100, Metabolic Activation: HAMSTER, LIVER, S-9, AROCLOR 1254 (10%), Method: PREINCUBATION inactive; negative | Test System: AMES SALMONELLA TYPHIMURIUM, Strain/Indicator: TA100, Metabolic Activation: NONE, Method: PREINCUBATION inactive; negative | Test System: AMES SALMONELLA TYPHIMURIUM, Strain/Indicator: TA100, Metabolic Activation: RAT, LIVER, S-9, AROCLOR 1254 (10%), Method: PREINCUBATION inactive; negative | Test System: AMES SALMONELLA TYPHIMURIUM, Strain/Indicator: TA1535, Metabolic Activation: HAMSTER, LIVER, S-9, AROCLOR 1254 (10%), Method: PREINCUBATION inactive; negative | Test System: AMES SALMONELLA TYPHIMURIUM, Strain/Indicator: TA1535, Metabolic Activation: NONE, Method: PREINCUBATION inactive; negative | Test System: AMES SALMONELLA TYPHIMURIUM, Strain/Indicator: TA1535, Metabolic Activation: RAT, LIVER, S-9, AROCLOR 1254 (10%), Method: PREINCUBATION inactive; negative | Test System: AMES SALMONELLA TYPHIMURIUM, Strain/Indicator: TA1537, Metabolic Activation: HAMSTER, LIVER, S-9, AROCLOR 1254 (10%), Method: PREINCUBATION inactive; negative | Test System: AMES SALMONELLA TYPHIMURIUM, Strain/Indicator: TA1537, Metabolic Activation: NONE, Method: PREINCUBATION inactive; negative | Test System: AMES SALMONELLA TYPHIMURIUM, Strain/Indicator: TA1537, Metabolic Activation: RAT, LIVER, S-9, AROCLOR 1254 (10%), Method: PREINCUBATION inactive; negative

O=C1NC(=O)C(c2ccccc2)(c2ccc(O)cc2)N1 (stereo not drawn)
inactive: Test System: AMES SALMONELLA TYPHIMURIUM, Strain/Indicator: TA97, Metabolic Activation: NONE, Method: STANDARD PLATE inactive; negative | Test System: AMES SALMONELLA TYPHIMURIUM, Strain/Indicator: TA97, Metabolic Activation: RAT, LIVER, S-9, 3-METHYLCHOLANTHRENE, Method: PREINCUBATION (10, 20 OR 30 MIN) inactive; negative | Test System: AMES SALMONELLA TYPHIMURIUM, Strain/Indicator: TA97, Metabolic Activation: RAT, LIVER, S-9, 3-METHYLCHOLANTHRENE, Method: STANDARD PLATE inactive; negative | Test System: AMES SALMONELLA TYPHIMURIUM, Strain/Indicator: TA97, Metabolic Activation: RAT, LIVER, S-9, AROCLOR 1254, Method: PREINCUBATION (10, 20 OR 30 MIN) inactive; negative | Test System: AMES SALMONELLA TYPHIMURIUM, Strain/Indicator: TA97, Metabolic Activation: RAT, LIVER, S-9, AROCLOR 1254, Method: STANDARD PLATE inactive; negative | Test System: AMES SALMONELLA TYPHIMURIUM, Strain/Indicator: TA97, Metabolic Activation: RAT, LIVER, S-9, PHENOBARBITONE, Method: PREINCUBATION (10, 20 OR 30 MIN) inactive; negative | Test System: AMES SALMONELLA TYPHIMURIUM, Strain/Indicator: TA97, Metabolic Activation: RAT, LIVER, S-9, PHENOBARBITONE, Method: STANDARD PLATE inactive; negative | [1] inactive; negative | Test System: AMES SALMONELLA TYPHIMURIUM, Strain/Indicator: TA98, Metabolic Activation: RAT, LIVER, S-9, 3-METHYLCHOLANTHRENE, Method: STANDARD PLATE inactive; negative | Test System: AMES SALMONELLA TYPHIMURIUM, Strain/Indicator: TA98, Metabolic Activation: RAT, LIVER, S-9, AROCLOR 1254, Method: STANDARD PLATE inactive; negative | Test System: AMES SALMONELLA TYPHIMURIUM, Strain/Indicator: TA98, Metabolic Activation: RAT, LIVER, S-9, PHENOBARBITONE, Method: STANDARD PLATE inactive; negative | Test System: AMES SALMONELLA TYPHIMURIUM, Strain/Indicator: TA100, Metabolic Activation: NONE, Method: STANDARD PLATE inactive; negative | Test System: AMES SALMONELLA TYPHIMURIUM, Strain/Indicator: TA100, Metabolic Activation: RAT, LIVER, S-9, 3-METHYLCHOLANTHRENE, Method: STANDARD PLATE inactive; negative | Test System: AMES SALMONELLA TYPHIMURIUM, Strain/Indicator: TA100, Metabolic Activation: RAT, LIVER, S-9, AROCLOR 1254, Method: STANDARD PLATE inactive; negative | Test System: AMES SALMONELLA TYPHIMURIUM, Strain/Indicator: TA100, Metabolic Activation: RAT, LIVER, S-9, PHENOBARBITONE, Method: STANDARD PLATE inactive; negative | Test System: AMES SALMONELLA TYPHIMURIUM, Strain/Indicator: TA1530, Metabolic Activation: NONE, Method: STANDARD PLATE inactive; negative | Test System: AMES SALMONELLA TYPHIMURIUM, Strain/Indicator: TA1530, Metabolic Activation: RAT, LIVER, S-9, 3-METHYLCHOLANTHRENE, Method: STANDARD PLATE inactive; negative | Test System: AMES SALMONELLA TYPHIMURIUM, Strain/Indicator: TA1530, Metabolic Activation: RAT, LIVER, S-9, AROCLOR 1254, Method: STANDARD PLATE inactive; negative | Test System: AMES SALMONELLA TYPHIMURIUM, Strain/Indicator: TA1530, Metabolic Activation: RAT, LIVER, S-9, PHENOBARBITONE, Method: STANDARD PLATE inactive; negative | Test System: AMES SALMONELLA TYPHIMURIUM, Strain/Indicator: TA1537, Metabolic Activation: NONE, Method: STANDARD PLATE inactive; negative | Test System: AMES SALMONELLA TYPHIMURIUM, Strain/Indicator: TA1537, Metabolic Activation: RAT, LIVER, S-9, 3-METHYLCHOLANTHRENE, Method: STANDARD PLATE inactive; negative | Test System: AMES SALMONELLA TYPHIMURIUM, Strain/Indicator: TA1537, Metabolic Activation: RAT, LIVER, S-9, AROCLOR 1254, Method: STANDARD PLATE inactive; negative | Test System: AMES SALMONELLA TYPHIMURIUM, Strain/Indicator: TA1537, Metabolic Activation: RAT, LIVER, S-9, PHENOBARBITONE, Method: STANDARD PLATE inactive; negative | Test System: AMES SALMONELLA TYPHIMURIUM, Strain/Indicator: TA1538, Metabolic Activation: NONE, Method: STANDARD PLATE inactive; negative | Test System: AMES SALMONELLA TYPHIMURIUM, Strain/Indicator: TA1538, Metabolic Activation: RAT, LIVER, S-9, 3-METHYLCHOLANTHRENE, Method: STANDARD PLATE inactive; negative | Test System: AMES SALMONELLA TYPHIMURIUM, Strain/Indicator: TA1538, Metabolic Activation: RAT, LIVER, S-9, AROCLOR 1254, Method: STANDARD PLATE inactive; negative | Test System: AMES SALMONELLA TYPHIMURIUM, Strain/Indicator: TA1538, Metabolic Activation: RAT, LIVER, S-9, PHENOBARBITONE, Method: STANDARD PLATE inactive; negative

COc1c(OC)c2occc2c2oc(=O)ccc12
inactive: [1] inactive; negative | Test System: AMES SALMONELLA TYPHIMURIUM, Strain/Indicator: TA98, Metabolic Activation: RAT, LIVER, S-9, PHENOBARBITAL, Method: STANDARD PLATE inactive; negative
